From patent US11389415B2, “Methods of regulating cannabinoid receptor activity-related disorders and diseases” (The United States of America as represented by the …, priority 2012, dated 2022)

Legend:
[1] = tested on: HepG2 cells; test: [3H]-Thymidine incorporation assay in HepG2 cells; type: cell-based, human; conditions: for effect of pretreatment on (R,R′)-Fen-stimulated mitogenesis: 1 h pretreatment then (R,R′)-Fen 24 h; for effect of pretreatment on anti-proliferative effect of (R,R′)-MNF: 1 h pretreatment then (R,R′)-MNF 24 h; for % Change in HepG2 cells ([3H]-thymidine incorporation): 1 μM; for effect on cell proliferation: compound alone
Procedure: (§1) Maintenance and Treatment of Cell Lines. Human HepG2 hepatocarcinoma cells and human U87MG glioma cells (ATCC, Manassas, Va.) were maintained in EMEM medium supplemented with 1% L-glutamine, 1% sodium pyruvate, 1% penicillin/streptomycin, and 10% FBS (Hyclone, Logan, Utah). The human 1321N1 astrocytoma cells (European Collection of Cell Cultures, Sigma-Aldrich) were cultured in Dulbecco's modified Eagle's medium supplemented with 10% FBS and penicillin/streptomycin. All cell lines were cultured at 37° C. in 5% CO2, and the medium was replaced every 2-3 days.
(§2) Cells were seeded in 12-well plates at approximately 50,000 cells/well and incubated at 37° C. After 24 hours, the wells were rinsed with PBS and replaced with serum-free medium containing the appropriate concentration of the test compounds. After another 24-hour incubation at 37° C., 1 μCi of [^3H]-thymidine was added to each well and incubated at 37° C. for 16 hours. [^3H]-Thymidine incorporation into DNA was monitored after the cells were washed twice with PBS and then lysed in 600 μL of 0.1N NaOH for 30 minutes with shaking. The lysate was then mixed with 3 mL of liquid scintillation cocktail (Beckman Coulter, Inc., Brea, Calif.), and radioactivity was measured by liquid scintillation counting using Beckman Coulter LS6000IC Scintillation Counter. Data are shown as CPM incorporated compared to the control cells.

[2] = tested on: rat C6 glioma cells; test: 3H-Thymidine incorporation in rat C6 glioma cells; type: cell-based; conditions: for effect of preincubation on antiproliferative effect of MNF: C6 cells, ICI-118,551 3 nM, AM251 0.5 and 1 μM, AM630 0.5 μM, 30 minutes, then 20 nM MNF
Procedure: Cell culture. The rat-derived C6 glioma cell line was obtained from the American Type Culture Collection (Manassas, Va.). The cells were routinely maintained in DMEM supplemented with L-glutamine, 1% penicillin/streptomycin solution, and 10% FBS in a humidified CO2 incubator at 37° C.
3H-Thymidine incorporation. C6 glioma cells were seeded in 12-well plates at ˜5×10^4 cells/well and incubated for 24 hours followed by a second 24-hour incubation with various concentrations of MNF. Radiolabeled thymidine (10 Ci/mmol; PerkinElmer Life and Analytical Sciences, Waltham, Mass.) was added at 1 μCi per well for 16 hours and its incorporation into DNA was then measured. Each treatment group was performed in triplicate and three independent studies were carried out.

[3] = tested on: U87MG cells; test: [3H]-Thymidine incorporation in U87MG cells; type: cell-based, human
Procedure: as §1, §2

[4] = target: GPR55 (Homo sapiens, UniProt Q9Y2T6); test: Cellular uptake of TocriFluor T1117 in HepG2 cells; type: cell-based; set-up: host or cells: HepG2 hepatocarcinoma cells; conditions: for effect of pretreatment on T1117 incorporation: HepG2, AM630 1 μM, WIN 55,212-2 1 μM (1 hour), AM251 1 μM (30 minutes)
[5] = tested on: 1321N1 cells; test: Mitogenesis / [3H]-thymidine incorporation in 1321N1 cells; type: cell-based, human; conditions: for effect on proliferation / [3H]-thymidine incorporation: compound alone
Procedure: as §1
as §2, with “[^3H]-Thymidine Incorporation Assay. Cells” for “Cells”

[6] = tested on: HepG2 cells; test: cAMP accumulation in HepG2 cells; type: cell-based, human; conditions: β-agonists at 10 μM
Procedure: cAMP Accumulation. HepG2 cells were seeded in 96-well plates and grown to confluency. […] The levels of cAMP accumulated in cells were determined and normalized to the amount of protein per well.

[7] = tested on: Akt and ERK1/2; test: phosphorylation of Akt and ERK1/2 in HepG2 cells (Western blot); type: cell-based, human; conditions: 1 μM, 5, 10 and 30 minutes
Procedure: Western Blotting. Cells were lysed with RIPA buffer containing EGTA and EDTA (Boston BioProducts, Ashland, Mass.). The lysis buffer was mixed with a protease inhibitor cocktail (Sigma-Aldrich). Protein concentrations were measured using the bicinchoninic acid reagent (Thermo-Pierce Biotechnology, Inc., Rockford, Ill.). […] Western blots were performed according to standard methods. The visualization of immunoreactive bands was performed using the ECL Plus Western Blotting Detection System (GE Healthcare, NJ) and their quantification was done by volume densitometry using Image J software and normalization to β-actin. […] The antibodies were used at a dilution recommended by the manufacturer.

Sequence of GPR55 (Q9Y2T6 whole entry): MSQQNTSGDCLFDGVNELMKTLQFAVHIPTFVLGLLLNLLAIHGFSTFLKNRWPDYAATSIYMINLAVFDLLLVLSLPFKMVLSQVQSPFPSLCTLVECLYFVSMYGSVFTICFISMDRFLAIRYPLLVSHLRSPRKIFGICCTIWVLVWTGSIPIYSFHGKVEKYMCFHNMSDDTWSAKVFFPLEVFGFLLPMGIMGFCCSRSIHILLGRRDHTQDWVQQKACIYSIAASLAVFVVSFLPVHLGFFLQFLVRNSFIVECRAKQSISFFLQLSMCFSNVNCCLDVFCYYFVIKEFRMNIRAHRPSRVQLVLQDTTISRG

## Cc1c(C(=O)NN2CCCCC2)nn(-c2ccc(Cl)cc2Cl)c1-c1ccc(I)cc1 [AM251, 1-(2,4-dichlorophenyl)-5-(4-iodophenyl)-4-methyl-N-(1-piperidyl)pyrazole-3-carboxamide, reference compound]
[1]; HepG2 cells
  effect of pretreatment on (R,R′)-Fen-stimulated mitogenesis: had no impact on the mitogenic responses of (R,R′)-Fen
  effect of pretreatment on anti-proliferative effect of (R,R′)-MNF: completely inhibited the anti-proliferative effects of (R,R′)-MNF
[2]
  effect of preincubation on antiproliferative effect of MNF: rendered C6 cells refractory to the growth-inhibitory effect of MNF
[3]
  effect of pretreatment on anti-proliferative action of (R,R′)-MNF: partially blocked

## CN(C)c1ccc2c(-c3ccc(C(=O)NCCCc4ccccc4)cc3C(=O)[O-])c3ccc(N(C)C)cc3[o+]c2c1 [TAMRA-PPA, 5′-TAMRA-3-phenylpropan-1-amine]
[4]; HepG2 cells, up to 1 hour
  cellular incorporation of fluorescence: no significant incorporation of fluorescence

## COc1ccc(C[C@H](C)NC[C@H](O)c2cc(O)cc(O)c2)c2ccccc12 [(R,S′)-MNF, 4-methoxy-1-naphthylfenoterol]
[1]; 24 h
  % Change in HepG2 cells ([3H]-thymidine incorporation): −68.1%

## Cc1c(C(=O)c2cccc3ccccc23)c2cccc3c2n1[C@H](CN1CCOCC1)CO3 [WIN 55,212-2, reference compound]
[1]; HepG2 cells
  effect of pretreatment on (R,R′)-Fen-stimulated mitogenesis: canceled out the growth-promoting action of fenoterol
  effect on cell proliferation: reduced cell proliferation
[4]
  effect of pretreatment on T1117 incorporation: markedly increased the rate of T1117 accumulation

## Cc1ccc(OCC(O)C(C)NC(C)C)c2c1CCC2 (stereo not drawn) [ICI 118,551, 3-(isopropylamino)-1-[(7-methyl-4-indanyl)oxy]butan-2-ol, reference compound]
[1]; HepG2 cells
  effect of pretreatment on (R,R′)-Fen-stimulated mitogenesis: significantly blocked (R,R′)-Fen-stimulated mitogenesis
  effect of pretreatment on anti-proliferative effect of (R,R′)-MNF: refractory to ICI 118,551 pretreatment
  effect on cell proliferation: showed no effect on cell proliferation
[2]
  effect of preincubation on antiproliferative effect of MNF: did not block the antiproliferative effect of MNF
[5]
  effect of pretreatment on (R,R′)-Fen signaling: blocked (R,R′)-Fen signaling in 1321N1 cells
[3]
  effect of pretreatment on anti-proliferative action of (R,R′)-MNF: inactive against the anti-proliferative action of (R,R′)-MNF in U87MG cells

## C[C@H](Cc1cccc2ccccc12)NC[C@H](O)c1cc(O)cc(O)c1 [(R,R′)-1-naphthylFen, (R,R′)-1-naphthylfenoterol]
[1]; 24 h
  % Change in HepG2 cells ([3H]-thymidine incorporation): (R,R): −67.52%
[1]; Homo sapiens, HepG2, read-out: IC50/EC50 (μM): IC50 for inhibition of [3H]-thymidine incorporation
  IC50: 0.21 ± 0.07 µM

## Cc1c(C(=O)NN2CCCCC2)nn(-c2ccc(Cl)cc2Cl)c1-c1ccc(-c2ccc(CCCNC(=O)c3ccc4c(c3)C(=O)OC43c4ccc(N(C)C)cc4Oc4cc(N(C)C)ccc43)cc2)cc1 [T1117]
[4]; HepG2 cells transfected with control siRNA
  time of half-maximum incorporation of T1117: ~15 min
[4]; serum-depleted cells, 37° C., 2.5-100 nM, read-out: T1117 concentration of half-maximal cellular incorporation
  EC50: ~8 nM

## COc1ccc(C(=O)c2c(C)n(CCN3CCOCC3)c3cc(I)ccc23)cc1 [AM630, 1-[2-(morpholin-4-yl)ethyl]-2-methyl-3-(4-methoxybenzoyl)-6-iodoindole]
[1]; HepG2 cells
  effect of pretreatment on (R,R′)-Fen-stimulated mitogenesis: had no impact on the mitogenic responses of (R,R′)-Fen
  effect of pretreatment on anti-proliferative effect of (R,R′)-MNF: completely inhibited the anti-proliferative effects of (R,R′)-MNF
[2]
  effect of preincubation on antiproliferative effect of MNF: had minimal effect against MNF signaling
[3]
  effect of pretreatment on anti-proliferative action of (R,R′)-MNF: partially blocked
[4]
  effect of pretreatment on T1117 incorporation: largely inactive

## C[C@H](Cc1ccc(O)cc1)NC[C@@H](O)c1cc(O)cc(O)c1 [(S,R′)-Fen, fenoterol]
[1]; 24 h
  % Change in HepG2 cells ([3H]-thymidine incorporation): 28.7%

## C[C@H](Cc1ccc(N)cc1)NC[C@H](O)c1cc(O)cc(O)c1 [(R,R′)-aminoFen, (R,R′)-4′-aminofenoterol]
[1]; 24 h
  % Change in HepG2 cells ([3H]-thymidine incorporation): (R,R′): 54.37%
[1]; [3H]-thymidine incorporation, HepG2
  fold more active than (R,R′)-Fen: 3 fold
[5]
  effect on proliferation / [3H]-thymidine incorporation: markedly lower

## C[C@@H](Cc1ccc(O)cc1)NC[C@H](O)c1cc(O)cc(O)c1 [(R,S′)-Fen, fenoterol]
[1]; 24 h
  % Change in HepG2 cells ([3H]-thymidine incorporation): 19.1%

## CC(C)NC[C@H](O)c1ccc(O)c(O)c1 [(R)-isoproterenol, reference compound]
[6]
  cAMP production: Neither (R)-isoproterenol nor (R,R′)-Fen, at 10 μM, elicited an increase in cAMP production
[1]; Homo sapiens, HepG2 cells, serum-free medium, 24 h, read-out: IC50/EC50 (μM): EC50 (ED50) for increase in [3H]-thymidine incorporation
  EC50: 0.4 ± 0.08 µM
[2]; Rattus norvegicus, 20 nM, 24 hours, read-out: inhibition of C6 cell growth / reduction in mitogenesis
  inhibition at 0.02 µM: 10 to 15%
[5]
  effect on proliferation / [3H]-thymidine incorporation: reduced proliferation in 1321N1 cells
[7]
  Akt and ERK activation: induced a time-dependent increase in Akt and ERK activation
[3]; compound alone
  effect on cellular proliferation: had no effect on U87MG cells

## CCCCCCC(C)(C)c1ccc([C@@H]2C[C@H](O)CC[C@H]2CCCO)c(O)c1 [CP 55,940]
[4]; HepG2, 0.25 μM, 30-minutes pretreatment
  reduction of T1117 uptake: 2.5 fold
